In ChEMBL document CHEMBL6071160, “Identification of a novel 10-hydroxyevodiamine prodrug as a potent topoisomerase inhibitor with improved aqueous solubility for treatment of hepatocellular carcinoma” (Eur J Med Chem, 2024):
The source made the active and inactive calls. The rule behind the calls is not given here.

Legend:
SK-HEP1 = assay: Induction of cell cycle arrest in human SK-HEP1 cells assessed as accumulation of cells at G2 phase 40 nM measured after 24 hrs by flow cytometric assay (reference value: 22.41%); type: functional
[1] = target: T1, DNA topoisomerase 1 (Homo sapiens) (UniProt P11387); assay: Inhibition of DNA topoisomerase 1 (unknown origin) assessed as relaxation of supercoiled plasmid pBR322 DNA at 25 to 100 uM incubated for 15 mins measured after 30 mins addition of ethidium bromide by agarose gel electrophoresis; details: dose 25-100 µM, time 45.0 min
T1 sequence (whole entry): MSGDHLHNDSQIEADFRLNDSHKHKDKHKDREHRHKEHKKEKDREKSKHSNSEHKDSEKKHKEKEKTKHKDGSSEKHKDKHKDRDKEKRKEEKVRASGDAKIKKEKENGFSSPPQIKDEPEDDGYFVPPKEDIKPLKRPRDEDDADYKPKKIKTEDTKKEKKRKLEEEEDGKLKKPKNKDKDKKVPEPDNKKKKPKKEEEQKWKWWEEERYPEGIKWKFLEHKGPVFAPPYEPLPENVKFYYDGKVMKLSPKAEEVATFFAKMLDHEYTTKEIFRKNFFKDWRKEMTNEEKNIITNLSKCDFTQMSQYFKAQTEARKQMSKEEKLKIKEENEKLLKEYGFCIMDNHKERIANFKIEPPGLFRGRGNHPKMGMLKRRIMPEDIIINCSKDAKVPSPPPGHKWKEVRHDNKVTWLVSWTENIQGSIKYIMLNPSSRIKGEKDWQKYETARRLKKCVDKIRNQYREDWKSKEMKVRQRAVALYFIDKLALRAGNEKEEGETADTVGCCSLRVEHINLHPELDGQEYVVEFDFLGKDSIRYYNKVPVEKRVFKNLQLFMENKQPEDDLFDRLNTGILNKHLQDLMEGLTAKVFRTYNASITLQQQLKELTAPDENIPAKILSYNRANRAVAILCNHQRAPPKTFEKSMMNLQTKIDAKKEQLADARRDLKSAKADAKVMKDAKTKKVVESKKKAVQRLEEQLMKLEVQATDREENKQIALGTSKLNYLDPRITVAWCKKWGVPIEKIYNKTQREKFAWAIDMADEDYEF

[2] = Toxicity in BALB/c nude mouse subcutaneously injected with human Huh-7 cells assessed as change in body weight at 40 mg/kg, ip administered once daily measured after 14 days; type: organism-based; details: in vivo, 336 h, time 14 day
Huh-7 [3] = assay: Induction of apoptosis in human Huh-7 cells assessed as viable cells at 20 nM measured after 24 hrs by Annexin-V-FITC/PI analysis (reference value: 97.46%); type: functional; details: read-out: Activity
Huh-7 [4] = assay: Induction of cell cycle arrest in human Huh-7 cells assessed as accumulation of cells at G1 phase 80 nM measured after 24 hrs by flow cytometric assay (reference value: 63.01%); type: functional

**Q.** With `C[N+](C)(C)CCC(=O)Oc1ccc2[nH]c3c(c2c1)CCN1C(=O)c2cc(F)cc(F)c2N(c2cccc(F)c2)C31.[I-]` (stereo not given) as the molecule, how does the Activity (SK-HEP1) read?
**A.** Its Activity is 24.99%.

**Q.** And the inhibition [1]?
**A.** Its inhibition is “Active”.

**Q.** What about the Activity [2] of the same molecule?
**A.** Its Activity is “Toxic”.

**Q.** What about the viability at 0.02 µM (Huh-7 [3]) of the same molecule?
**A.** The viability at 0.02 µM was 96.6%.

**Q.** And the Activity (Huh-7 [4])?
**A.** The Activity was 6.79%.
